Reference: US12110287B2, “Heterocyclic derivatives as Nav1.7 and Nav1.8 blockers” (RaQualia Pharma Inc., priority 2018, dated 2024)

Biological target: Nav1.7 (Homo sapiens, UniProt Q15858)
Assay: EFS-FRET assay
Format: cell-based
Parameters: expressed in transfected cells; host or cells: CHO (Chinese hamster ovary) cells
Details: CHO cells expressing human Nav1.7 channels, read-out: IC50 against Nav1.7
Method: This screen is used to determine the effects of compounds on human Nav1.7 channels, utilizing electrical field stimulation (EFS) system in 96-well plate format on FDSS (Hamamatsu Photonics) platform. The changes of membrane potential are monitored with FRET dye pair, DiSBAC2(3) and PTS18.
CHO (Chinese hamster ovary) cells expressing human Nav1.7 channels are grown in T225 flasks, in a 5% CO2 humidified incubator to about 80% confluence. Media composition consists of HAM/F12 with Glutamax I, 10% FCS, 100 units/mF penicillin and 100 microgram/mF hygromycin.
• Seed each cell lines (1×10^5 cells/well) into 96-well plates prior to experimentation. • Incubate at 37° C. in 5% CO2 for 24 hours. • Wash each well with assay buffer (140 mM NaCl, 4.5 mM KCl, 10 mM D-Glucose, 2 mM CaCl2, 1 mM MgCl2, 10 mM HEPES, pH 7.4 adjusted with NaOH) twice. • Add 1st loading solution containing 10 microM PTS18 and 0.06% Pluronic F-127 in assay buffer. • Incubate the plate at rt in dark for 1 hour. • Remove 1st loading solution and add 2nd loading solution containing 12.5 microM DiSBAC2(3), 1.25 mM Xylene Fast Yellow and 0.0075% Pluronic F-127 in assay buffer. • Place the plate under the dark at rt for 25 minutes. • Add compound solutions into the assay plate. • Set the assay plate in FDSS and place an EFS device on the plate. • Measure EFS-induced fluorescent response by FDSS.
The data are analyzed and reported as normalized ratios of intensities measured at […]. The process of calculating these ratios is performed as follows:
This analysis is performed using a computerized specific program designed for FDSS generated data. Fluorescence ratio values are plotted using XLfit to determine an IC50 value for each compound.

Chain of Nav1.7 (Q15858 whole entry): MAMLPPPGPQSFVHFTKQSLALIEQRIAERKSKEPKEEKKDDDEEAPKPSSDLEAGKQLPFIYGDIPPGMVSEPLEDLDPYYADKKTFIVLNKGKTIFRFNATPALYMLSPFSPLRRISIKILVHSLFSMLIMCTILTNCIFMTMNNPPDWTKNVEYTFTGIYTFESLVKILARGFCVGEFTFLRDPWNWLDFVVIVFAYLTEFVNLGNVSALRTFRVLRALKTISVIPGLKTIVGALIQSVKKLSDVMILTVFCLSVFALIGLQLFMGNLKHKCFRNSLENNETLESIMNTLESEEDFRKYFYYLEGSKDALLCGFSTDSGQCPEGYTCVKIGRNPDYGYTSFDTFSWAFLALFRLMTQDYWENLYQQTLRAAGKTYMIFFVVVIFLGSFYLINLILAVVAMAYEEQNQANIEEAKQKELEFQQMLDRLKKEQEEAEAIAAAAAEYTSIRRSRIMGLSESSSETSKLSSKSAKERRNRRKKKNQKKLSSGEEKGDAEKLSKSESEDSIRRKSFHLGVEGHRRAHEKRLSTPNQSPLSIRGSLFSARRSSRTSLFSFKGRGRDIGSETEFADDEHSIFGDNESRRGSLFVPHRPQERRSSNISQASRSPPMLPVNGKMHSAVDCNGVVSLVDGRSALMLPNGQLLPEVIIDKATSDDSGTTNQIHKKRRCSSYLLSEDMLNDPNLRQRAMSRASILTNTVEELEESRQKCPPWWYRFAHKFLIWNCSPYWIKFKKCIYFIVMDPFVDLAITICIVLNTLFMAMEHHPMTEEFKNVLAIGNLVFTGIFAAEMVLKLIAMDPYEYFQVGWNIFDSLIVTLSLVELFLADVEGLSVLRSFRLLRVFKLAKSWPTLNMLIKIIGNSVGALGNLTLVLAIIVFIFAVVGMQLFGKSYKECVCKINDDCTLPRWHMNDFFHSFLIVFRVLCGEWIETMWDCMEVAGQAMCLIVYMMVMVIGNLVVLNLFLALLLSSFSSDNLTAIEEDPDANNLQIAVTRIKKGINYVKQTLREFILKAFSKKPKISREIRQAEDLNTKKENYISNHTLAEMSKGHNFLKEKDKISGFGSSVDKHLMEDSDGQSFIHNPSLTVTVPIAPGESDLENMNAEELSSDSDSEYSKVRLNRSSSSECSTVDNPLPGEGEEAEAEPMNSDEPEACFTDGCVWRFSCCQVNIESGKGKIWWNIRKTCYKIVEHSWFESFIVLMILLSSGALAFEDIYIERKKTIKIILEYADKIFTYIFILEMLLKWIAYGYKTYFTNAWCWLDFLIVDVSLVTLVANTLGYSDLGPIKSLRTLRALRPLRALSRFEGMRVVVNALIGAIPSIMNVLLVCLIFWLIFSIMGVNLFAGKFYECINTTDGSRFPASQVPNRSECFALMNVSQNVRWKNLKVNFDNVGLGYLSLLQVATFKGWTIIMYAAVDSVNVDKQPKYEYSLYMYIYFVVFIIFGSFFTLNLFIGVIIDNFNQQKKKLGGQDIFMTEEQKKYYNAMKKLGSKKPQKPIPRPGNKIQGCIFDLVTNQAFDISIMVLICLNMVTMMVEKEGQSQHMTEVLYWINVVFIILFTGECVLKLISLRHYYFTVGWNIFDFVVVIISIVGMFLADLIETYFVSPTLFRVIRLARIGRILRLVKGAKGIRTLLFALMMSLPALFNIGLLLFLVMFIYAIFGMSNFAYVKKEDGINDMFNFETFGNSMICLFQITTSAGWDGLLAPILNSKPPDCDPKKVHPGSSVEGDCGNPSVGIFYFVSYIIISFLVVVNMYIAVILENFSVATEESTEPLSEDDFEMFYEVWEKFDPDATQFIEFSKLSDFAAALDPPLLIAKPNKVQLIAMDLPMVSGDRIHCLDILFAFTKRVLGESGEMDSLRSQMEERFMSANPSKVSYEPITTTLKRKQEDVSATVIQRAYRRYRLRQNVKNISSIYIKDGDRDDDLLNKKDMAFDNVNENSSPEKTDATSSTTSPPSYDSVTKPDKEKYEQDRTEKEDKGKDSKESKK

IC50, < 500 nM:
CC(=O)Nc1cc(C(=O)N[C@@H]2CCN(c3ncc(C(F)(F)F)cc3Cl)C2)ccn1 [Example 2], CC(=O)Nc1cc(C(=O)N[C@@H]2CCCN(c3ncc(C(F)(F)F)cc3Cl)C2)ccn1 [Example 5], CCC(=O)Nc1cc(C(=O)N[C@@H]2CCCN(c3ncc(C(F)(F)F)cc3Cl)C2)ccn1 [Example 6], CC(=O)Nc1cc(C(=O)NC2CN(c3ncc(C(F)(F)F)cc3Cl)C2)ccn1 [Example 8], CC(C)C(=O)Nc1cc(C(=O)N[C@@H]2CCN(c3ncc(C(F)(F)F)cc3Cl)C2)ccn1 [Example 10], CCC(=O)Nc1cc(C(=O)N[C@@H]2CCN(c3ncc(C(F)(F)F)cc3Cl)C2)cc(C)n1 [Example 11], CCC(=O)Nc1cc(C(=O)N[C@@H]2CCN(c3ccc(C(F)(F)F)cn3)C2)ccn1 [Example 16], CCC(=O)Nc1nccc(C(=O)N[C@@H]2CCN(c3ncc(C(F)(F)F)cc3Cl)C2)n1 [Example 20], O=C(N[C@@H]1CCN(c2ncc(C(F)(F)F)cc2Cl)C1)c1ccnc(NC(=O)C2CC2)n1 [Example 21], CC(C)C(=O)Nc1nccc(C(=O)N[C@@H]2CCN(c3ncc(C(F)(F)F)cc3Cl)C2)n1 [Example 22], O=C(N[C@@H]1CCN(c2ncc(C(F)(F)F)cc2Cl)C1)c1ccnc(NC(=O)C2CCC2)n1 [Example 23], CC(=O)Nc1nccc(C(=O)N[C@@H]2CCCN(c3ncc(C(F)(F)F)cc3Cl)C2)n1 [Example 24], CCC(=O)Nc1nccc(C(=O)N[C@@H]2CCCN(c3ncc(C(F)(F)F)cc3Cl)C2)n1 [Example 25], O=C(N[C@@H]1CCCN(c2ncc(C(F)(F)F)cc2Cl)C1)c1ccnc(NC(=O)C2CC2)n1 [Example 26], CC(C)C(=O)Nc1nccc(C(=O)N[C@@H]2CCCN(c3ncc(C(F)(F)F)cc3Cl)C2)n1 [Example 27], O=C(N[C@@H]1CCCN(c2ncc(C(F)(F)F)cc2Cl)C1)c1ccnc(NC(=O)C2CCC2)n1 [Example 28], COc1cc(C(F)(F)F)cnc1N1CC[C@@H](NC(=O)c2ccnc(NC(C)=O)c2)C1 [Example 37], CCC(=O)Nc1cc(C(=O)N[C@@H]2CCN(c3ncc(C(F)(F)F)cc3OC)C2)ccn1 [Example 38], COc1cc(C(F)(F)F)cnc1N1CC[C@@H](NC(=O)c2cc(C)nc(NC(C)=O)c2)C1 [Example 39], CC(=O)Nc1cc(C(=O)NC2CCC(C)N(c3ncc(C(F)(F)F)cc3Cl)C2)ccn1 (centres unmarked) [Example 41], CCC(=O)Nc1cc(C(=O)NC2CCC(C)N(c3ncc(C(F)(F)F)cc3Cl)C2)ccn1 (centres unmarked) [Example 42], CC(=O)Nc1cc(C(=O)N[C@@H]2CCN(c3ncc(C(F)(F)F)cc3C)C2)ccn1 [Example 46], Cc1cc(C(F)(F)F)cnc1N1CC[C@@H](NC(=O)c2ccnc(NC(=O)C3CC3)c2)C1 [Example 47], CCC(=O)Nc1cc(C(=O)N[C@@H]2CCN(c3ncc(C(F)(F)F)cc3Cl)C2)ccn1 [Example 48], CC(=O)Nc1cc(C(=O)N[C@@H]2CCN(c3ncc(C(F)(F)F)cc3Cl)C2)cc(C)n1 [Example 49], CC(C)C(=O)Nc1cc(C(=O)NC2CN(c3ncc(C(F)(F)F)cc3Cl)C2)ccn1 [Example 50], CC(=O)Nc1cc(C(=O)NC2CN(c3ncc(C(F)(F)F)cc3Cl)C2)cc(C)n1 [Example 51], Cc1cc(C(=O)NC2CN(c3ncc(C(F)(F)F)cc3Cl)C2)cc(NC(=O)C(C)C)n1 [Example 52], Cc1cc(C(=O)NC2CN(c3ncc(C(F)(F)F)cc3Cl)C2)nc(NC(=O)C2CC2)n1 [Example 53], O=C(N[C@@H]1CCCN(c2ccc(C(F)(F)F)cc2Cl)C1)c1ccnc(NC(=O)C2CC2)c1 [Example 55], Cc1cc(C(=O)N[C@@H]2CCCN(c3ccc(C(F)(F)F)cc3Cl)C2)cc(NC(=O)C2CC2)n1 [Example 56], CC(C)C(=O)Nc1cc(C(=O)N[C@@H]2CCCN(c3ccc(C(F)(F)F)cc3Cl)C2)ccn1 [Example 57], Cc1cc(C(=O)N[C@@H]2CCCN(c3ccc(C(F)(F)F)cc3Cl)C2)cc(NC(=O)C(C)C)n1 [Example 58], O=C(N[C@@H]1CCCN(c2ncc(C(F)(F)F)cc2Br)C1)c1ccnc(NC(=O)C2CC2)c1 [Example 59], Cc1cc(C(=O)N[C@@H]2CCCN(c3ncc(C(F)(F)F)cc3Br)C2)cc(NC(=O)C2CC2)n1 [Example 60], Cc1cc(C(=O)N[C@@H]2CCCN(c3ncc(C(F)(F)F)cc3C)C2)cc(NC(=O)C(C)C)n1 [Example 73], O=C(N[C@@H]1CCN(c2ccc(C(F)(F)F)cc2Cl)C1)c1ccnc(NC(=O)C2CC2)c1 [Example 77], Cc1cc(C(=O)N[C@@H]2CCN(c3ncc(C(F)(F)F)cc3Cl)C2)cc(NC(=O)C2CC2)n1 [Example 78], CC(C)C(=O)Nc1cc(C(=O)N[C@@H]2CCN(c3ccc(C(F)(F)F)cc3Cl)C2)ccn1 [Example 79], Cc1cc(C(=O)N[C@@H]2CCN(c3ccc(C(F)(F)F)cc3Cl)C2)cc(NC(=O)C(C)C)n1 [Example 80], COc1cc(C(F)(F)F)cnc1N1CC[C@@H](NC(=O)c2ccnc(NC(=O)C3CC3)c2)C1 [Example 81], COc1cc(C(F)(F)F)cnc1N1CC[C@@H](NC(=O)c2cc(C)nc(NC(=O)C3CC3)c2)C1 [Example 82], COc1cc(C(F)(F)F)cnc1N1CC[C@@H](NC(=O)c2ccnc(NC(=O)C(C)C)c2)C1 [Example 83], COc1cc(C(F)(F)F)cnc1N1CC[C@@H](NC(=O)c2cc(C)nc(NC(=O)C(C)C)c2)C1 [Example 84], CCCC(=O)Nc1cc(C(=O)N[C@@H]2CCN(c3ncc(C(F)(F)F)cc3OC)C2)ccn1 [Example 88], O=C(N[C@@H]1CCCN(c2ncc(OCC(F)(F)F)cc2Cl)C1)c1ccnc(NC(=O)C2CC2)c1 [Example 92], O=C(N[C@@H]1CCN(c2ncc(OCC(F)(F)F)cc2Cl)C1)c1ccnc(NC(=O)C2CC2)c1 [Example 93], CCC(=O)Nc1cc(C(=O)N[C@@H]2CCCN(c3ncc(OCC(F)(F)F)cc3Cl)C2)ccn1 [Example 95], CCC(=O)Nc1cc(C(=O)N[C@@H]2CCN(c3ncc(OCC(F)(F)F)cc3Cl)C2)ccn1 [Example 96], O=C(N[C@@H]1CCCN(c2ncc(OCc3ccc(F)cc3)cc2Cl)C1)c1ccnc(NC(=O)C2CC2)c1 [Example 99], Cc1cc(C(=O)N[C@@H]2CCN(c3ncc(C(F)(F)F)cc3Cl)C2)cc(NC(=O)C(C)C)n1 [Example 104], CCC(=O)Nc1cc(C(=O)N[C@H]2CN(c3ncc(C(F)(F)F)cc3Cl)CC23CC3)cc(C)n1 [Example 107], CC(C)C(=O)Nc1cc(C(=O)N[C@H]2CN(c3ncc(C(F)(F)F)cc3Cl)CC23CC3)ccn1 [Example 109], Cc1cc(C(=O)N[C@@H]2CCCN(c3ncc(C(F)(F)F)cc3Cl)C2)nc(NC(=O)C2CC2)n1 [Example 114], CCC(=O)Nc1cc(C(=O)N[C@H]2CN(c3ncc(C(F)(F)F)cc3Cl)CC23CC3)ccn1 [Example 116], CC(=O)Nc1cc(C(=O)N[C@H]2CN(c3ncc(C(F)(F)F)cc3Cl)CC23CC3)cc(C)n1 [Example 117], Cc1cc(C(=O)N[C@H]2CN(c3ncc(C(F)(F)F)cc3Cl)CC23CC3)cc(NC(=O)C(C)C)n1 [Example 118], O=C(N[C@H]1CN(c2ncc(C(F)(F)F)cc2Cl)CC12CC2)c1ccnc(NC(=O)C2CC2)n1 [Example 119], CC(=O)Nc1cc(C(=O)N[C@@H]2CCN(c3ccc(C(F)(F)F)cc3)C2)ccn1 [Example 120], O=C(N[C@@H]1CCN(c2ccc(C(F)(F)F)cc2F)C1)c1ccnc(NC(=O)C2CC2)n1 [Example 121], CC(C)C(=O)Nc1cc(C(=O)N[C@@H]2CCN(c3ccc(C(F)(F)F)c(F)c3)C2)ccn1 [Example 123], O=C(N[C@@H]1CCCN(c2ccc(OC(F)(F)F)cc2Cl)C1)c1ccnc(NC(=O)C2CC2)c1 [Example 125], O=C(N[C@@H]1CCCN(c2ccc(OC(F)(F)F)cc2Cl)C1)c1ccnc(NC(=O)C2CC2)n1 [Example 126], CC(C)C(=O)Nc1cc(C(=O)N[C@@H]2CCCN(c3ccc(OC(F)(F)F)cc3Cl)C2)ccn1 [Example 127], Cc1cc(C(=O)N[C@@H]2CCCN(c3ccc(OC(F)(F)F)cc3Cl)C2)cc(NC(=O)C(C)C)n1 [Example 128]
